The structures appear in SMILES notation. Counter-ions that a name gives are not always drawn.

The experiment relates to anesthetized rats. Nature of the experiment: Effect on pelvic nerve stimulation-induced elevation of intravesical pressure in anesthetized rats. The settings on record: Rattus norvegicus; 3 mg/kg intravenous; maximum effect within one hour; AUC, pre-treatment = 100%; SD female rats; read-out: Increase rate of intravesical pressure (% of pre). Type of experiment: in vivo. As for the experimental part:
Test Example 3: Effect on Pelvic Nerve Stimulation-Induced Elevation of Intravesical Pressure in Anesthetized Rats
The effect of the Example compounds of the present invention in the pelvic nerve electrical stimulation-induced elevation of intravesical pressure using rats as an action of nerve stimulation-dependent bladder contraction in vivo was measured by the following method. That is, SD female rats (Japan SLC, Inc.) were used and its lower abdomen was dissected at the midline under pentobarbital anesthesia (50 mg/kg ip). After ligating and cutting the ureter on both sides, a cannula (PE-50) for measuring the intravesical pressure was inserted into the bladder from the external urethral opening and fixed by a clip. After injecting about 200 μL of saline through the cannula that had been inserted into the bladder, the other side was connected to a pressure transducer to measure the intravesical pressure. Under a stereoscopic microscope observation, the pelvic nerve in the vicinity of the bladder was peeled and an electrode for nerve stimulation (unique Medical) was placed. The abdominal cavity was filled with mineral oil (MP BIOMEDICALS). After placing in a post-operative stabilization period, the pelvic nerve was subjected to electrical stimulation (stimulation voltage: 10 V, stimulation frequency: 8 Hz, pulse width: 0.3 msec, and stimulation time: 10 seconds) to elicit the elevation of intravesical pressure, using an electrical stimulator (Nihon Kohden). By repeating the electrical stimulation at an interval of 2 minutes while adjusting the voltage, the voltage was adjusted to elicit about 50% to 70% elevation of intravesical pressure elicited at 10 V. Thereafter, by repeating the electrical stimulation at an interval of 10 minutes, the increase in the intravesical pressure by electrical stimulation was stabilized three times or more, and the test substance (an administration amount of 3 mg/kg) was then administered from the catheter detained in the vein at a volume of 1 mL/kg, thus measuring an effect of the elevation of the intravesical pressure of the test substance for 1 hour. The test substance was dissolved in water supplemented with 10% DMSO and 10% Cremophor.
The response was applied to a personal computer through a PowerLab (registered trademark) and analyzed by LabChart (registered trademark). The AUC of each elevation of the intravesical pressure was calculated, the intravesical pressure elevation rate (% of pre) after the treatment with the test substance was calculated by taking an average value of the values measured three times before the treatment with the test substance as 100%, and the maximum effect during a period within one hour after administration of the compound was considered as the effect of the test substance.
Regarding `C[C@@H]1CCCN1Cc1sc(Nc2nccc(N3CCN(CCC(=O)O)CC3)c2F)nc1-c1ccc(Cl)c(C(F)(F)F)c1` [Example 2, sodium 3-(4-{2-[(4-[4-chloro-3-(trifluoromethyl)phenyl]-5-{[(2R)-2-methylpyrrolidin-1-yl]methyl}-1,3-thiazol-2-yl)amino]-3-fluoropyridin-4-yl}piperazin-1-yl)propanoate], the response vs control in vivo at 3 mg/kg was 143%.
Turning to `C[C@@H]1CCCN1Cc1sc(Nc2nccc(N3CCN(CCC(=O)O)CC3)c2F)nc1-c1cc(F)cc(C(F)(F)F)c1` [Example 5, 3-(4-{3-fluoro-2-[(4-[3-fluoro-5-(trifluoromethyl)phenyl]-5-{[(2R)-2-methylpyrrolidin-1-yl]methyl}-1,3-thiazol-2-yl)amino]pyridin-4-yl}piperazin-1-yl)propanoic acid trihydrochloride], the response vs control in vivo at 3 mg/kg is 146%.
As for `Cc1nc(Nc2nc(-c3cc(F)cc(C(F)(F)F)c3)c(CN3CCC[C@H]3C)s2)cc(N2CCN(CCC(=O)O)[C@@H](C)C2)n1` [Example 15], the response vs control in vivo at 3 mg/kg turned out to be 130%.
With `Cc1nc(Nc2nc(-c3cc(F)cc(C(F)(F)F)c3)c(CN3CCC[C@H]3C)s2)cc(N2CCN(CC(=O)O)CC2)n1` [Example 16] the figure was 111%; with `C[C@@H]1CN(c2cc(Nc3nc(-c4cc(F)cc(C(F)(F)F)c4)c(CN4CCC[C@H]4C)s3)ncn2)CCN1CCC(=O)O` [Example 20], 118%.
In the case of `Cc1nc(Nc2nc(-c3cc(F)cc(C(F)(F)F)c3)c(CN3CCC[C@H]3C)s2)cc(N2CCN(CCC(=O)O)[C@H](C)C2)n1` [Example 21], the response vs control in vivo at 3 mg/kg was 116%.
For `COC1CCN(c2sc(Nc3cc(N4CCN(CCC(=O)O)CC4)nc(C)n3)nc2-c2cc(F)cc(C(F)(F)F)c2)CC1` [Example 27] the value was 123%.
For `CN(Cc1sc(Nc2ncnc(N3CCN(CCC(=O)O)CC3)c2F)nc1-c1cc(F)cc(C(F)(F)F)c1)CC1CC1` [Example 29] the value was 145%; for `Cc1nc(Nc2nc(-c3cc(F)cc(C(F)(F)F)c3)c(CN3CCC[C@H]3C)s2)cc(N2CCC(OCC(=O)O)CC2)n1` [Example 30], 124%; for `C[C@@H]1CCCN1Cc1sc(Nc2ncnc(N3CCN(CCC(=O)O)[C@@H](C)C3)c2F)nc1-c1cc(F)cc(C(F)(F)F)c1` [Example 31], 138%.
On to `CO[C@H]1CCCN(c2sc(Nc3ncnc(N4CCN(CCC(=O)O)CC4)c3F)nc2-c2ccc(Cl)c(C(F)(F)F)c2)C1` [Example 32], for which the response vs control in vivo at 3 mg/kg is 232%.
`C[C@@H]1CCCN1Cc1sc(Nc2ncnc(N3CC[C@H](N(C)CCC(=O)O)C3)c2F)nc1-c1cc(F)cc(C(F)(F)F)c1` [Example 34]: the response vs control in vivo at 3 mg/kg came out at 159%.
For the compound `C[C@@H]1CCCN1Cc1sc(Nc2ncnc(N3CCN(CCC(=O)O)[C@@H](C)C3)c2F)nc1-c1ccc(Cl)c(C(F)(F)F)c1` [Example 35], the response vs control in vivo at 3 mg/kg amounted to 154%.
With `C[C@@H]1CC[C@@H](C)N1Cc1sc(Nc2ncnc(N3CCN(CCC(=O)O)CC3)c2F)nc1-c1ccc(Cl)c(C(F)(F)F)c1` [Example 36] the figure was 191%.
Regarding `CC[C@@H]1CCCN1Cc1sc(Nc2nc(C)nc(N3CCN(CCC(=O)O)CC3)c2F)nc1-c1cc(F)cc(C(F)(F)F)c1` [Example 38], the response vs control in vivo at 3 mg/kg was found to be 142%.
As for `COC1(C(=O)O)CCN(c2ncnc(Nc3nc(-c4cc(F)cc(C(F)(F)F)c4)c(CN4CCC[C@H]4C)s3)c2F)CC1` [Example 39], the response vs control in vivo at 3 mg/kg was 123%.
On to `C[C@@H]1CC[C@@H](C)N1Cc1sc(Nc2ncnc(N3CCN(CCC(=O)O)CC3)c2F)nc1-c1cc(Cl)cc(C(F)(F)F)c1` [Example 40], for which the response vs control in vivo at 3 mg/kg amounted to 212%.
With `C[C@@H]1CCCCN1Cc1sc(Nc2ncnc(N3CCN(CCC(=O)O)CC3)c2F)nc1-c1cc(Cl)cc(C(F)(F)F)c1` [Example 43] the figure was 177%.
Consider `C[C@@H]1CCCN1Cc1sc(Nc2ncnc(N3CCN(CCC(=O)O)C(CF)C3)c2F)nc1-c1cc(F)cc(C(F)(F)F)c1` (stereo partly shown) [Example 45], for which the response vs control in vivo at 3 mg/kg stood at 182%.
Turning to `C[C@@H]1CCCN1Cc1sc(Nc2ncnc(N3CCN(CCC(=O)O)CC3)c2F)nc1-c1cc(Cl)cc(OC(F)(F)F)c1` [Example 51], the response vs control in vivo at 3 mg/kg worked out at 129%.
For `C[C@@H]1CCCN1Cc1sc(Nc2ncnc(N3CC[C@H](N(C)CCC(=O)O)C3)c2F)nc1-c1ccc(Cl)c(C(F)(F)F)c1` [Example 53] the value was 145%; for `COC1(C(=O)O)CCN(c2ncnc(Nc3nc(-c4cc(F)cc(C(F)(F)F)c4)c(CN4[C@H](C)CC[C@H]4C)s3)c2F)CC1` [Example 54], 150%.
`COC[C@H]1CN(c2ncnc(Nc3nc(-c4ccc(Cl)c(C(F)(F)F)c4)c(CN4CCC[C@H]4C)s3)c2F)CCN1CCC(=O)O` [Example 55]: the response vs control in vivo at 3 mg/kg was 189%.
As for `C[C@@H]1CCCN1Cc1sc(Nc2ncnc(N3CCN(CCC(=O)O)[C@H](CF)C3)c2F)nc1-c1cc(F)cc(C(F)(F)F)c1` [Example 58], the response vs control in vivo at 3 mg/kg worked out at 175%.
Turning to `C[C@@H]1CCCN1Cc1sc(Nc2ncnc(N3CCN(CCC(=O)O)[C@H](CF)C3)c2F)nc1-c1ccc(Cl)c(C(F)(F)F)c1` [Example 59], the response vs control in vivo at 3 mg/kg is 225%.
In the case of `CC[C@@H]1CCCN1Cc1sc(Nc2ncnc(N3CCN(CCC(=O)O)CC3)c2F)nc1-c1cc(Cl)cc(C(F)(F)F)c1` [Example 63], the response vs control in vivo at 3 mg/kg came to 198%.
For the compound `C[C@@H]1CC[C@@H](C)N1Cc1sc(Nc2ncnc(N3CC[C@H](N(C)CCC(=O)O)C3)c2F)nc1-c1cc(Cl)cc(C(F)(F)F)c1` [Example 65], the response vs control in vivo at 3 mg/kg was 174%.
For `C[C@@H]1CCCN1Cc1sc(Nc2ncnc(N3CCC(OCC(=O)O)CC3)c2F)nc1-c1cc(Cl)cc(C(F)(F)F)c1` [Example 67], the response vs control in vivo at 3 mg/kg came out at 169%.
For the compound `C[C@@H]1CC[C@@H](C)N1Cc1sc(Nc2ncnc(N3CCC(OCC(=O)O)CC3)c2F)nc1-c1cc(Cl)cc(C(F)(F)F)c1` [Example 68], the response vs control in vivo at 3 mg/kg turned out to be 172%.
Regarding `CC[C@@H]1CCCN1Cc1sc(Nc2ncnc(N3CC[C@H](N(C)CCC(=O)O)C3)c2F)nc1-c1cc(Cl)cc(C(F)(F)F)c1` [Example 69], the response vs control in vivo at 3 mg/kg was 150%.
On to `CC[C@@H]1CCCN1Cc1sc(Nc2ncnc(N3CCN(CCC(=O)O)[C@H](COC)C3)c2F)nc1-c1cc(F)cc(C(F)(F)F)c1` [Example 70], for which the response vs control in vivo at 3 mg/kg turned out to be 151%.
As to `CC[C@@H]1CCCN1Cc1sc(Nc2ncnc(N3CCN(CCC(=O)O)[C@H](COC)C3)c2F)nc1-c1cc(Cl)cc(C(F)(F)F)c1` [Example 71], the response vs control in vivo at 3 mg/kg came to 197%.
Turning to `C[C@@H]1CCCN1Cc1sc(Nc2ncnc(N3CCN(CC(=O)O)CC3)c2F)nc1-c1cc(Cl)cc(C(F)(F)F)c1` [Example 77], the response vs control in vivo at 3 mg/kg was found to be 140%.
With `C[C@@H]1CCCN1Cc1sc(Nc2ncnc(N3CCN(CCC(=O)O)[C@@H](CO)C3)c2F)nc1-c1cc(F)cc(C(F)(F)F)c1` [Example 86] the figure was 164%.
Regarding `C[C@@H]1CCCN1Cc1sc(Nc2cc(N3CCN(CCC(=O)O)CC3)ncn2)nc1-c1cc(Cl)cc(C(F)(F)F)c1` [Example 92], the response vs control in vivo at 3 mg/kg turned out to be 105%.
On to `COc1c(F)cc(-c2nc(Nc3cc(N4CCN(CCC(=O)O)CC4)ncn3)sc2CN2CCC[C@H]2C)cc1C(F)(F)F` [Example 94], for which the response vs control in vivo at 3 mg/kg worked out at 114%.
As for `CCN(CC)Cc1sc(Nc2nc(C)nc(N3CCN(CCC(=O)O)CC3)c2F)nc1-c1cc(F)cc(C(F)(F)F)c1` [Example 97], the response vs control in vivo at 3 mg/kg worked out at 143%.
With `Cc1nc(Nc2nc(-c3cc(F)cc(C(F)(F)F)c3)c(CN(C)C(C)C)s2)c(F)c(N2CCN(CCC(=O)O)CC2)n1` [Example 98], the response vs control in vivo at 3 mg/kg was found to be 139%.
For the compound `Cc1nc(Nc2nc(-c3cc(F)cc(C(F)(F)F)c3)c(CN3[C@H](C)CC[C@H]3C)s2)cc(N2CCN(CCC(=O)O)CC2)n1` [Example 99], the response vs control in vivo at 3 mg/kg amounted to 121%.
Regarding `C[C@@H]1CC[C@@H](C)N1Cc1sc(Nc2nccc(N3CCN(CCC(=O)O)CC3)c2F)nc1-c1cc(F)cc(C(F)(F)F)c1` [Example 100], the response vs control in vivo at 3 mg/kg is 145%.
